In patent US20240043379A1, “PRODRUGS OF CYTOTOXIC ACTIVE AGENTS HAVING ENZYMATICALLY CLEAVABLE GROUPS” (Bayer Pharma Aktiengesellschaft, priority 2016, published 2024):

Key:
[1] = Caco-2 flux assay for cell permeability; assay type: in vitro ADME; conditions: human; for Papp B→A at 2 h: Caco-2, 2 hours incubation; for efflux ratio at 2 h: ratio of Papp (B-A) to Papp (A-B), Caco-2
[2] = tested on: NCI-H292: human mucoepidermoid lung carcinoma cells; assay: MTT assay, cytotoxic effect on NCI-H292; assay type: cell-based; conditions: Table 2, metabolites and small-molecule reference examples
Protocol: (§1) The analysis of the cytotoxic effects of the ADCs was carried out with various cell lines:
(§2) The cells were cultivated by the standard method as stated by the American Tissue Culture Collection (ATCC) or the Leibniz-Institut DSMZ-Deutsche Sammlung von Mikroorganismen und Zellkulturen GmbH (DSMZ) for the cell lines in question.
(§3) The cells were then incubated in an incubator at 37° C., and 5% carbon dioxide. […] To this end, the MTT reagent was incubated with the cells for 4 h, followed by lysis of the cells overnight by addition of the detergent. […] The measured data were used to calculate the IC50 of the growth inhibition using the DRC (dose response curve). The proliferation of cells which were not treated with test substance but were otherwise identically treated was defined as the 100% figure.

[3] = tested on: SK-HEP-1: human liver cell cancer line; assay: MTT assay, cytotoxic effect on SK-HEP-1; assay type: cell-based; conditions: Table 2, metabolites and small-molecule reference examples
Protocol: as §1, §2, §3

[4] = tested on: Caco-2 cells; assay: Caco-2 flux assay for cell permeability; assay type: in vitro ADME; conditions: Caco-2, 2 hours incubation
[5] = tested on: KPL4: human breast cancer cell line; assay: MTT assay, cytotoxic effect on KPL4; assay type: cell-based; conditions: Table 2, metabolites and small-molecule reference examples
Protocol: as §1, §2, §3

SMILES	Papp B→A at 2 h [1] [×10⁻⁶ cm/s]	efflux ratio at 2 h [1]	IC50 [2] [nM]	IC50 [3] [nM]	Papp (B-A) [4] [×10⁻⁶ cm/s]	further results
CC(C)(C)[C@H](c1cc(-c2cc(F)ccc2F)cn1Cc1ccccc1)N(CC[C@H](N)C(=O)NCCNC(=O)CNC(=O)CCCC(=O)NCCCC[C@H](N)C(=O)O)C(=O)CO.O=C(O)C(F)(F)F [Example M28, N^6-{(3R,7S)-7-Amino-3-[1-benzyl-4-(2,5-difluorophenyl)-1H-pyrrol-2-yl]-4-glycoloyl-2,2-dimethyl-8,13,16,20-tetraoxo-4,9,12,15-tetraazaicosan-20-yl}-L-lysine/trifluoroacetic acid (1:1)]	0.19	1	–	–	–	–
CC(C)(C)[C@H](c1cc(-c2cc(F)ccc2F)cn1Cc1ccccc1)N(CC[C@H](N)C(=O)NCCNC(=O)CNC(=O)CC(SC[C@H](N)C(=O)O)C(=O)O)C(=O)CO.O=C(O)C(F)(F)F (stereo partly drawn) [Example M26, 4-[(2-{[2-({(2S)-2-Amino-4-[{(1R)-1-[1-benzyl-4-(2,5-difluorophenyl)-1H-pyrrol-2-yl]-2,2-dimethylpropyl}(glycoloyl)amino]butanoyl}amino)ethyl]amino}-2-oxoethyl)amino]-2-{[(2R)-2-amino-2-carboxyethyl]sulphanyl}-4-oxobutanoic acid/trifluoroacetic acid (1:1)]	–	–	63.8	19	1.3	–
CC(C)(C)[C@H](c1cc(-c2cc(F)ccc2F)cn1Cc1ccccc1)N(CC[C@H](N)C(=O)NCCNC(=O)CNC(=O)C(CC(=O)O)SC[C@H](N)C(=O)O)C(=O)CO (single isomer, unassigned) [Example M16]	–	–	143	44	–	IC50 [5]: 195 nM
CC(C)(C)[C@H](c1cc(-c2cc(F)ccc2F)cn1Cc1ccccc1)N(CC[C@H](N)C(=O)N[C@H](CCC(=O)O)C(=O)O)C(=O)CO.O=C(O)C(F)(F)F [Example M25, N-{(2S)-2-Amino-4-[{(1R)-1-[1-benzyl-4-(2,5-difluorophenyl)-1H-pyrrol-2-yl]-2,2-dimethylpropyl}(glycoloyl)amino]butanoyl}-L-glutamic acid/trifluoroacetic acid (1:1)]	–	–	–	–	0.81	IC50 ([2]; Homo sapiens, NCI-H292): 500 nM; IC50 ([3]; Homo sapiens, SK-HEP1): 500 nM; IC50 ([5]; Homo sapiens, KPL4): 500 nM
CC(C)(C)[C@H](c1cc(-c2cc(F)ccc2F)cn1Cc1ccccc1)N(CC[C@H](N)C(=O)NCCNC(=O)CCCC(=O)NCCCC[C@H](N)C(=O)O)C(=O)CO.O=C(O)C(F)(F)F [Example M29, N^6-(5-{[2-({(2S)-2-Amino-4-[{(1R)-1-[1-benzyl-4-(2,5-difluorophenyl)-1H-pyrrol-2-yl]-2,2-dimethylpropyl}(glycoloyl)amino]butanoyl}amino)ethyl]amino}-5-oxopentanoyl)-L-lysine/trifluoroacetic acid (1:1)]	0.41	5.3	–	–	–	–
CC(C)(C)[C@H](c1cc(-c2cc(F)ccc2F)cn1Cc1ccccc1)N(CCCN)C(=O)CSC[C@H](NC(=O)CCOCCOCCOCCOCCNC(=O)CNC(=O)CC(SC[C@H](N)C(=O)O)C(=O)O)C(=O)O.O=C(O)C(F)(F)F.O=C(O)C(F)(F)F (stereo partly drawn) [Example M20, (1R,4R,27R,33R)-1-Amino-32-(3-aminopropyl)-33-[1-benzyl-4-(2,5-difluorophenyl)-1H-pyrrol-2-yl]-34,34-dimethyl-6,9,25,31-tetraoxo-13,16,19,22-tetraoxa-3,29-dithia-7,10,26,32-tetraazapentatriacontane-1,4,27-tricarboxylic acid/trifluoroacetic acid (1:2)]	0.09	–	–	–	–	–
